For orientation: inhibition means the change of the read-out against control, counted positive when it falls.

Data on 32 compounds can be found in ChEMBL document CHEMBL2007661, “Compounds: GSK PKIS; Assays: UNC Frye lab” (2012).

The target of test [1] is T1, Inhibitor of nuclear factor kappa-B kinase subunit alpha (Homo sapiens) (UniProt O15111).
T1 sequence (whole entry): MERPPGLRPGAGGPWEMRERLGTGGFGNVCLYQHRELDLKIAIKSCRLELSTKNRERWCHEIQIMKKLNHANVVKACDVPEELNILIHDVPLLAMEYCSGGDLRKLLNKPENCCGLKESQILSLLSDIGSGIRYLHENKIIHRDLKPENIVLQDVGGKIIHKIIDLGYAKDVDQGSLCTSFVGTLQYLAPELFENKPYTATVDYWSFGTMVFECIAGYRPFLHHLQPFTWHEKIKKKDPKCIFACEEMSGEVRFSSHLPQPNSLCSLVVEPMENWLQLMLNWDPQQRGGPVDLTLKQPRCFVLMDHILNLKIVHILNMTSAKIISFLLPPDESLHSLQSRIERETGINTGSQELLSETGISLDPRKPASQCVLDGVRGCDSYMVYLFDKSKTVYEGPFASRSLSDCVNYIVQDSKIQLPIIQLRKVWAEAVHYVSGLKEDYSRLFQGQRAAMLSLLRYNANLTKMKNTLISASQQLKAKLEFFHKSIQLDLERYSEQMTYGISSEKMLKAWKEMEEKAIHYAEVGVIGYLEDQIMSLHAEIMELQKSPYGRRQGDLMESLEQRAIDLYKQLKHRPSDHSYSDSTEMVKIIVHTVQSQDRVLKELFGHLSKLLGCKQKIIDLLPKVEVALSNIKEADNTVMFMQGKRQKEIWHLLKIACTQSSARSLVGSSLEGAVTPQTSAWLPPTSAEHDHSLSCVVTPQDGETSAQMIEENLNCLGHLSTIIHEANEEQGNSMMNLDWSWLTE
As to conditions: at 1 µM.

In test [2] the target is T2, Inhibitor of nuclear factor kappa-B kinase subunit beta (Homo sapiens) (UniProt O14920).
T2 sequence (whole entry): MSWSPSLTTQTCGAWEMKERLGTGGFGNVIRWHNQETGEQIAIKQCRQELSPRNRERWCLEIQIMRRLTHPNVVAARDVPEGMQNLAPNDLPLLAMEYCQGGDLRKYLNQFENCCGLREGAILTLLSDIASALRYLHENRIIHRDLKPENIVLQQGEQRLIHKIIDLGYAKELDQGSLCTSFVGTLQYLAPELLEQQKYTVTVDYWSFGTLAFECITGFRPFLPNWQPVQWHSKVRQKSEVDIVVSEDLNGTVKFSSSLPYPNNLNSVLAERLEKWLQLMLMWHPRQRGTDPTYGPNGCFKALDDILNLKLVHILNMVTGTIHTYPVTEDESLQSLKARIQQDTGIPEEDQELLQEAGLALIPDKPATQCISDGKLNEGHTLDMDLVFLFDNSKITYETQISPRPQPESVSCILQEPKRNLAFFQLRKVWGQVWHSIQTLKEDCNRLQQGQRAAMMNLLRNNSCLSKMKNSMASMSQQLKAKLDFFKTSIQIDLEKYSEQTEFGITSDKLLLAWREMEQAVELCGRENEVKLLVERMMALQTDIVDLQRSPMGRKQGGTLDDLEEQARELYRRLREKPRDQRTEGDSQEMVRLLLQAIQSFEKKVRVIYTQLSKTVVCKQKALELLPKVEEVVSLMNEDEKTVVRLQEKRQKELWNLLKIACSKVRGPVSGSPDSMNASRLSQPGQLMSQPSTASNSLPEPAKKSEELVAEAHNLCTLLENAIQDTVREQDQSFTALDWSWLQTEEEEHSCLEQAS
To be noted: at 1 µM.

Test [3] deals with T3, Tyrosine-protein kinase Mer (Homo sapiens) (UniProt Q12866).
T3 sequence (whole entry): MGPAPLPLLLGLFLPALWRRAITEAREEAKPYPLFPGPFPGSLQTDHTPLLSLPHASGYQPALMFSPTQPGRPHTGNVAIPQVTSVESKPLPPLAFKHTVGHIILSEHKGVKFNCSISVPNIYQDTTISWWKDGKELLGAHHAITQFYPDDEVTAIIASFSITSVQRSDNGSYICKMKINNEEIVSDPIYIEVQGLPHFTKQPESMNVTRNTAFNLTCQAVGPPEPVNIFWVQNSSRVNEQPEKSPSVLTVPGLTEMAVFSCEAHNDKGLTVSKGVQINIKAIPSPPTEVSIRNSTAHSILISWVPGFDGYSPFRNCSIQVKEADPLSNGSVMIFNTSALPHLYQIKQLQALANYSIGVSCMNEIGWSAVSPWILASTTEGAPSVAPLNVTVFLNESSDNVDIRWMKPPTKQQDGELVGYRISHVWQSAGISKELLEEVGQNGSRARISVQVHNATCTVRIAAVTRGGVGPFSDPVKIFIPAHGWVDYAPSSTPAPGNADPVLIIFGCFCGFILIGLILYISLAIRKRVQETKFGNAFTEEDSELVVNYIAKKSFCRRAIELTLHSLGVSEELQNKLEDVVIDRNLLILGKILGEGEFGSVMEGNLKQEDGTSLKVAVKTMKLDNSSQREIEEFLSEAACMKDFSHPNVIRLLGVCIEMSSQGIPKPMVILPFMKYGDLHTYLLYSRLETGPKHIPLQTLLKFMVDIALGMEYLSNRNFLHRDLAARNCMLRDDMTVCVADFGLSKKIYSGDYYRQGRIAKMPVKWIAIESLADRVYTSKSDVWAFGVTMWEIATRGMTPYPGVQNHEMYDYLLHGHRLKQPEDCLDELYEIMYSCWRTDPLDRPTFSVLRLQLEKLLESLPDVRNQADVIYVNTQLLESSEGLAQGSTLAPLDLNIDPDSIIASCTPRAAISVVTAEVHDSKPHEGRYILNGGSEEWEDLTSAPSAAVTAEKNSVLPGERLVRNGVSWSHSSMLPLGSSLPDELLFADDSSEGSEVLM
To be noted: at 10 µM.

“And” between values parts separate entries of the source, which are not always exact repeats. Equal entries are not always repeated.

As to `NC(=O)c1cccc(Nc2nccc(Nc3cccc4[nH]ncc34)n2)c1`, the inhibition in test [1] is -5%; in test [2], -2% and 2%; in test [3], 79%.

With `N#Cc1c(NC(=O)c2ccccc2F)sc2c1CCCC2`, the inhibition in test [1] is -3%; in test [2], 1% and 0%; in test [3], -6%.

`Cc1ccc(NC(=O)c2ccoc2)cc1-c1ccc(C(=O)NCC2CC2)cc1`: the inhibition is 5% and 4% in test [1]; -5% in test [2]; -4% in test [3].

Take `CN(C)CCOc1ccc(-c2nc(-c3ccncc3)c(-c3ccc4c(c3)CC/C4=N\O)[nH]2)cc1`: the inhibition is 2% and -6% in test [1]; 0% and -1% in test [2]; 3% in test [3].

Consider `CCCNc1cccc(-n2ncc3c(N/N=C/c4ccncc4)ncnc32)c1`, for which the inhibition is 4% in test [1]; -3% and -2% in test [2]; 1% in test [3].

In the case of `N#Cc1ccc2c(-c3ccnc(NC4CC4)n3)c(-c3ccc(F)cc3)nn2c1`, the inhibition in test [1] was 1% and -2%; in test [2], 4% and -1%; in test [3] it was 24%.

Take `ON=C1CCc2cc(-c3nc(C4CCNCC4)[nH]c3-c3ccncc3)ccc21`: the inhibition in test [1] is -2% and -3%; in test [2], 6% and 3%; in test [3], 38%.

For `COc1ccc2cc(-c3c(-c4ccncc4)nc(-c4ccc(S(C)(=O)=O)cc4C)n3C)ccc2c1`, the inhibition was 5% in test [1], -2% in test [2] and 0% in test [3].

Regarding `COc1cccc(COc2cc(-n3cnc4ccccc43)sc2C(N)=O)c1`, the inhibition in test [1] is 4% and 3%; in test [2], -5% and -4%; in test [3], 1%.

On to `CN(C)c1cc2c(Nc3ccc4c(cnn4Cc4ccccc4)c3)ncnc2cn1`, for which the inhibition in test [1] is 1% and 2%; in test [2], -3% and -2%; in test [3], 10%.

On to `O=C1NC(=O)C(c2ccccc2Cl)=C1Nc1cccc(O)c1`, for which the inhibition is 1% in test [1]; -6% and -2% in test [2]; 18% in test [3].

Take `COc1ccc(CNC(=O)c2ccc(-c3cc(-c4nnc(C)o4)ccc3C)cc2)cc1`: the inhibition in test [1] was 3% and 7%; in test [2], -2% and -3%; in test [3] it was 3%.

For `CN(C)c1cc2c(Nc3ccc4nc(Cc5ccccc5)[nH]c4c3)ncnc2cn1`, the inhibition was 2% and 1% in test [1]; -2% and -3% in test [2]; 2% in test [3].

As to `Cc1ccc(Nc2ccnc(Nc3cccc(C(N)=O)c3)n2)cc1O`, the inhibition in test [1] was 2%; in test [2], -3% and -2%; in test [3], 93%.

As to `CCn1c(-c2nonc2N)nc2cncc(C(=O)NCCNC)c21`, the inhibition was 30% in test [1]; 1% and -2% in test [2]; 81% in test [3].

`Nc1ccc(C#Cc2cncnc2Nc2ccc(OCc3cccc(F)c3)c(Cl)c2)cc1`: the inhibition is 2% and -8% in test [1]; 7% and -3% in test [2]; 58% in test [3].

With `Fc1ccc(-c2c(-c3ccncc3)nc3n2CCS3)cc1`, the inhibition in test [1] is -4%; in test [2], 0% and -2%; in test [3], 10%.

Take `CC(=O)Nc1cccc(C#Cc2cncnc2Nc2ccc(OCc3cccc(F)c3)c(Cl)c2)c1`: the inhibition is -6% in test [1]; -2% and 0% in test [2]; -1% in test [3].

In the case of `COc1cc2ncn(-c3cc(OCCc4ccccc4)c(C(N)=O)s3)c2cc1OC`, the inhibition was -2% in test [1]; 8% and 3% in test [2]; 51% in test [3].

`COc1cccc(-n2ncc3c(N/N=C/c4ccc(C(=O)NCCN(C)C)cc4)ncnc32)c1`: the inhibition in test [1] is 7% and 19%; in test [2], -5% and -6%; in test [3], 49%.

Turning to `COc1cc(N2CCN(C(C)C)CC2)ccc1Nc1nc(Nc2cccc(F)c2C(=O)O)c2cc[nH]c2n1`, the inhibition was 2% and 3% in test [1]; -4% and -3% in test [2]; -2% in test [3].

As to `CCCN1CCCC(c2ccc(Nc3nc(Nc4cc(F)ccc4C(N)=O)c4cc[nH]c4n3)c(OC)c2)C1` (stereo unspecified), the inhibition is -4% and -3% in test [1]; -1% and 1% in test [2]; 5% in test [3].

Regarding `C/C(Nc1ccc(S(N)(=O)=O)cc1)=C1/C(=O)Nc2ccccc21`, the inhibition in test [1] is 2% and 1%; in test [2] it was -3% and -2%; in test [3], -2%.

As for `CC1=C(C(=O)Nc2cc(Cl)c3[nH]ncc3c2)C(c2ccc(C(F)(F)F)cc2)CC(=O)N1` (stereo unspecified), the inhibition is 2% in test [1]; -7% and 0% in test [2]; 18% in test [3].

Turning to `N#Cc1c(NC(=O)CN2CCOCC2)sc2c1CCCC2`, the inhibition in test [1] is 0% and 1%; in test [2], -1% and -3%; in test [3] it was -1%.

For the compound `Cc1ccc(NC(=O)c2ccnc(N3CCCC3)c2)cc1-c1ccc(C(=O)NCC2CC2)cc1`, the results for the inhibition in test [1], in test [2] and in test [3] were -8%, 2% and -1%, respectively.

Take `NC(=O)c1ccc2c(-c3ccnc(NCCCO)n3)c(-c3ccc(F)cc3)nn2c1`: the inhibition in test [1] is 1%; in test [2], -2% and -1%; in test [3], -4%.

In the case of `N#Cc1ccc(Oc2nccc(-c3c(-c4ccc(F)cc4)ncn3C3CCNCC3)n2)cc1`, the inhibition in test [1] is -2% and -1%; in test [2], -2% and -1%; in test [3], -1%.

For the compound `CCn1c(-c2nonc2N)nc2c(C#CC(C)(C)O)nc(OC[C@H](N)c3ccccc3)cc21`, the inhibition in test [1] is 10% and 11%; in test [2], -4% and 1%; in test [3], -2%.

Consider `COc1ccc2c(-c3ccnc(Nc4cccc(OC(F)(F)F)c4)n3)cnn2n1`, for which the inhibition in test [1] was 2% and 1%; in test [2], -3% and -2%; in test [3], 2%.

Turning to `Cc1cc(O)cc(C)c1/C=C/c1cncc(C(N)=O)c1`, the inhibition in test [1] was 4% and 0%; in test [2] it was -5% and -4%; in test [3], -6%.

Consider `CS(=O)(=O)CCNCc1coc(-c2ccc3ncnc(Nc4ccc(OCc5ccccc5)cc4)c3c2)c1`, for which the inhibition in test [1] was 2% and -8%; in test [2], 0% and -1%; in test [3], 84%.
